Assay [1] has as its target T1, HHAT (Homo sapiens, UniProt Q5VTY9).
T1 construct: FLAG (C); His (C); made in house; host or cells: HEK293a cells stably overexpressing HHAT-FLAG-His
As to the kind of experiment: Pilot HTS Acyl-cLIP screen of FDA-approved drugs, purified HHAT, stopped-assay conditions. The format is biochemical. To be noted: compounds screened at 25 μM.

In assay [2] the target is T1, HHAT. As to the kind of experiment: HHAT Acyl-cLIP assay with HHAT-P100(sol): SHH-FAM palmitoylation, dose-response and kinetics. The format is biochemical. On the procedure: Recombinant Protein Production
HHAT-enriched solubilised membrane fractions (HHAT-P100(sol)) were prepared as previously described,[4] with the following modifications. HEK293a cells overexpressing HHAT-FLAG-His (HEK293a HHAT+) were cultured, harvested by trypsinisation, and washed with PBS as previously described.[9] Cells (5 × 106) in DMEM/FBS (35 mL) were inoculated on sterilised CultiSphere S microcarriers (100 mg) in a spinner flask (Corning), and incubated as previously described. After 24 h, DMEM/FBS (15 mL) was added and cells incubated with stirring (~30 rpm), with addition on DMEM/FBS (50 mL) after 24 h. DMEM/FBS (50 mL) was refreshed every subsequent 24 h. After 5 days, microcarriers were collected by centrifugation (1,000 g, 1 min), and washed with PBS (25 mL). Microcarriers were digested with trypsin (3 mL) with visual monitoring by microscopy (5-15 min, see Supplementary Figure S11D) to release HEK293a HHAT+ cells, which were washed with DMEM/FBS (25 mL) and PBS […]
(25 mL). […]
25 kPSI through a Cell Disruptor (Constant Systems). Lysates were cleared by centrifugation (20,000 g, 30 min, 4 °C), and the supernatant passed through a HisTrap™ Fast Flow column (GE Healthcare). Bound protein was eluted with elution buffer (50 mM TRIS, 150 mM NaCl, 300 mM imidazole, pH 8.8), and concentrated to 2 mL in a Protein Concentrator PES (Pierce, 10,000 MWCO). The sample was cleared by centrifugation (20,000 g, 5 min, 4 °C) and purified using a S75 16/600 gel filtration column (Generon), eluting with storage buffer (50 mM TRIS, 150 mM NaCl, pH 7.4). Fractions containing protein were pooled, concentrated (5 mg/mL APT1, 4 mg/mL APT2), flash frozen, and stored at −80 °C.
Fluorescence measurements were recorded on an EnVision Xcite 2104 (PerkinElmer).
FAM-labelled peptides were measured using a FITC FP D505fp mirror module, FITC FP 480 nm excitation filter (30 nm bandwidth), FITC FP P-pol 535 nm first emission filter (40 nm bandwidth), and FITC FP S-pol 535 nm second emission filter (40 nm bandwidth). Continuous reaction monitoring was conducted using measurement height = 9.52 mm, 8 flashes/well, PMT gain = 319, and G-factor = 1.09. For the HHAT pilot screen, stopped-assay measurements were performed using measurement height = 9.52 mm, 60 flashes/well, PMT gain = 319, and G-factor = 1.09. The NMT acyl-cLIP assay continuous reaction monitoring was conducted using measurement height = 6.6 mm, 1 flash/well, PMT gain = 163, and G- […]
TAMRA-labelled peptides were measured using a BODIPY TMR FP D555fp mirror module, BODIPY TMR FP 531 nm excitation filter (25 nm bandwidth), BODIPY TMR FP P-pol 579 nm first emission filter (25 nm bandwidth), and BODIPY TMR FP S-pol 579 nm second emission filter (25 nm bandwidth). Continuous reaction monitoring was conducted using measurement height = 6.5 mm, 200 flashes/well, PMT gain = 255, and G-factor = 1.6.
HHAT-P100(sol) (450 µg/mL) in solubilisation buffer (20 mM HEPES, 350 mM NaCl, 1% (w/v) DDM, 5% glycerol, pH 7.3) was diluted 1:10 in SHH-FAM (2 µM) in reaction buffer (100 mM MES, 20 mM NaCl, 1 mM DTT, 1 mM TCEP, 0.1% (w/v) BSA, pH 6.5). The HHAT/SHH-FAM solution (12 µL/well) was dispensed into a black 384-well plate (Corning, 3575). The reaction was initiated by addition of Pal-CoA (7.5 µM) in reaction buffer (8 µL/well), and fluorescence readings collected every 1 min for 1 h. Under stopped-assay conditions, the reaction was halted by addition of SHH (220 µM) in reaction buffer (2 µL).
Detergents (2 mM) or BSA (0.15 mM) were tested for generation of polarised fluorescence from Pal-SHH-FAM or SHH-FAM (0.1 µM) in 100 mM MES, 20 mM NaCl. Detergent and BSA titrations were performed using 2-fold serial dilutions.
Small molecule inhibitors in DMSO were dispensed using an Echo 550 liquid handler (Labcyte), with a DMSO backfill volume of 50 nL. Substrate competitors SHH, SHH(FL), or Pal-SHH were serially diluted in reaction buffer (1:3) prior to addition to the HHAT/SHH-FAM […]
solution. […]

Assay [3] deals with SHH acylation in HEK-293 SHH+ cells. As to the kind of experiment: In-cell YnC15 tagging assay of SHH acylation. It counts as cell-based, human. To be noted: inhibitors 20 µM, YnC15, AzTB ligation. How it is done: In-Cell YnC15 Tagging Assay
HEK293a SHH+ cells (500,000 cells/well) were plated in a 6-well plate in DMEM/FBS (3 mL/well) and cultured for 24 h. Cells were treated with inhibitors in DMSO (20 µM), two RUSKI-201 (20 µM) blind-positive controls and two DMSO (7.5 µL) blind-negative controls.
After 1 h, YnC15 (3 µL, 20 mM in DMSO) was added and cells cultured for a further 6 h before washing with PBS. Cells were lysed in PBS with Triton X-100 (1%), SDS (0.1% (w/v)) and Complete EDTA-free protease inhibitor cocktail (Roche Diagnostics). Cells were removed from plates by scraping, and lysates centrifuged (13,000 g, 10 min, 4 °C). The protein concentration of the supernatant was estimated using the DC Protein Assay (Bio-Rad) and adjusted to 1 mg/mL with lysis buffer. AzTB (1 µL, 10 mM in DMSO), CuSO4 (2 µL, 50 mM in H2O), TCEP (2 µL, 50 mM in H2O) and TBTA (1 µL, 10 mM in DMSO) were combined, and this mixture (6 µL) added to the lysate (100 µL). Samples were shaken at RT for 1 h, then proteins precipitated by addition of methanol (200 µL), chloroform (50 µL) and water (100 µL) followed by centrifugation (13,000 g, 5 min, 4 °C). The upper aqueous layer was removed without disturbing the protein layer at the interphase, methanol (0.5 mL) was added, and the precipitated proteins isolated by centrifugation (13,000 g, 10 min, 4 °C). Protein pellets were […]
washed twice with methanol, briefly air-dried and re-dissolved in PBS containing SDS (0.2% (w/v)) and DTT (0.1 mM) using sonication to a final concentration of 1 mg/mL.
10 µg of protein were separated on a 15% SDS-polyacrylamide gel. Fluorescence was recorded using a Typhoon imager (GE Healthcare; excitation laser: 532 nm, emission filter:
Proteins were transferred to a nitrocellulose membrane by wet transfer (100 V, 1 h), and membranes blocked with BSA (5% (w/v)) in TBS-T (50 mM TRIS, 150 mM NaCl, 0.1% Tween-20, pH 7.5) for 1 h at RT, followed by overnight incubation at 4°C with rabbit α-SHH (Santa Cruz Biotechnology; sc-9024; 1:200) in TBS-T with BSA (0.5% (w/v)) or mouse α-Tubulin (Santa Cruz Biotechnology; sc-8035; 1:200) in TBS-T with BSA (0.5% (w/v)). Membranes were washed with TBS-T (4 × 5 min) and incubated at RT for 1 h with HRP-conjugated Goat-α-mouse IgG (Advansta; 1:10,000) in TBS-T with BSA (0.5% (w/v)) or Goat-α-rabbit IgG (Advansta; 1:10,000) in TBS-T with BSA (0.5% (w/v)). Membranes were washed with TBS-T (4 × 5 min) and developed with Luminata Crescendo Western HRP substrate (Millipore) on a Fujifilm LAS-3000 imager. YnC15-labelled SHH band intensities were quantified using ImageJ 1.50i (National Institute of Health, USA).
HEK293a SHH+ cells (5,000 cells/well) were plated in a 96-well plate in DMEM/FBS […]
(50 µL/well) and cultured for 24 h. […]

Assay [4] in a line: Detergent/BSA titration for polarised emission of Pal-SHH-FAM (fluorescence anisotropy). To be noted: BSA titration with Pal-SHH-FAM; read-out: polarisation EC50.
[5] abbreviates: HHAT, SHH-FAM substrate competition, read-out: IC50 as competitive inhibitor of SHH-FAM palmitoylation.
Where [6] appears, read: HHAT-P100(sol) activity, SHH-FAM palmitoylation, 25 min reaction, four parameter fit, read-out: IC50 of HHAT inhibition.

Consider twelve molecules from article PMC6855259, “Acylation-coupled lipophilic induction of polarisation (Acyl-cLIP): a universal assay for lipid transferase and hydrolase enzymes” (Chemical Science, 2019).

Counter-ions that a name gives are not always drawn. Like-named read-outs stand apart in the source and are kept apart here. Where a SMILES comes first, the peptide text is derived from it. Where no end group is shown, it is not given here.

T1 sequence (Q5VTY9 whole entry): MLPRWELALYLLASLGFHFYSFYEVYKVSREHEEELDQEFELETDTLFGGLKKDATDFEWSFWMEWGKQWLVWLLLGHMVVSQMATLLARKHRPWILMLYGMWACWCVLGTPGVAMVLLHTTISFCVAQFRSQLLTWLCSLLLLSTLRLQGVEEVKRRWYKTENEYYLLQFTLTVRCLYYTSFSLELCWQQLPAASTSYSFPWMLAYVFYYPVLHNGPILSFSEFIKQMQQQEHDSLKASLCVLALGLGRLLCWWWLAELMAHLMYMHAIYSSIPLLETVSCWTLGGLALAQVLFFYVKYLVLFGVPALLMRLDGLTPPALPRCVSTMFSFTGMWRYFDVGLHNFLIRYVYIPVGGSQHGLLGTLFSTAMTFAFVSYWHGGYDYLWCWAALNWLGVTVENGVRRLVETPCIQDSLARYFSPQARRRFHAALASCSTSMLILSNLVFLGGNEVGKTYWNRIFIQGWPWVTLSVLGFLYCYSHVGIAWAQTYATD

For the molecule `Cc1cc(C2CCCCC2)n(O)c(=O)c1` [Ciclopirox], in assay [1], the inhibition at 25 µM was over 80%.
Still for that read-out and setting: the result for `Oc1ccc(C2CNCCc3c2cc(O)c(O)c3Cl)cc1` (centres unmarked) [Fenoldopam Mesylate] reads over 80%.
`CCCCCCCCCCCCCCCC(=O)SCCNC(=O)CCNC(=O)[C@H](O)C(C)(C)COP(=O)(O)OP(=O)(O)OC[C@H]1O[C@@H](n2cnc3c(N)ncnc32)[C@H](O)[C@@H]1OP(=O)(O)O` [Pal-CoA, palmitoyl-CoA]: the Vmax in assay [2] (Pal-CoA titration, SHH-FAM palmitoylation) is reported as 0.081 pmol min^–1; in assay [2] (Pal-CoA titration, initial velocity conditions) it was 0.081 pmol/min. Besides, in assay [2] (Pal-CoA titration, SHH-FAM palmitoylation, initial velocity conditions, read-out: apparent KM), the Km turned out to be 0.17 µM.
`CCCCCCCCCCCCCCCC(=O)N[C@@H](CS)C(=O)NCC(=O)N1CCC[C@H]1C(=O)NCC(=O)N[C@@H](CCCNC(=N)N)C(=O)NCC(=O)N[C@@H](Cc1ccccc1)C(=O)NCC(=O)N[C@@H](CCCCN)C(=O)N[C@@H](CCCNC(=N)N)C(=O)N[C@@H](CCCCN)C(N)=O` [Pal-SHH] (HELM PEPTIDE1{[CCCCCCCCCCCCCCCC(=O)[*:2]].C.G.P.G.R.G.F.G.K.R.K.[am]}$$$$V2.0): the IC50 in assay [2] (setting [5]) is 0.1 µM.
For the molecule `CCC(C)CNCC(=O)N1CCc2sccc2C1COc1cccc(C)c1` (centres unmarked) [RUSKI-43], the IC50 in assay [2] (setting [6]) worked out at 17 µM.
For `CCC(C)CNCC(=O)N1CCc2sccc2C1c1cccc(C)n1` (centres unmarked) [RUSKI-201], the IC50 in assay [2] (setting [6]) came to 2 µM. In addition, the “inhibition of SHH acylation (YnC15 tagging) by in-gel fluorescence” value in assay [3] (IGF) is given as “showed inhibition of SHH acylation”. The “inhibition of SHH acylation assessed by increased molecular weight in anti-SHH blotting” value in assay [3] (α-SHH western blot) is “displayed inhibition”. This molecule showed an inhibition at 25 µM in assay [1] of over 80%.
In turn, `O=C1Cc2cc(CCN3CCN(c4nsc5ccccc45)CC3)c(Cl)cc2N1` [Ziprasidone·HCl] returned an inhibition at 25 µM in assay [1] of over 80%.
Regarding CGPGRGFGKRK-NH2 [SHH], in assay [2] (setting [5]), the IC50 turned out to be 0.37 µM.
Take RUSKI-41: the IC50 in assay [2] (setting [6]) stood at 5.7 µM.
Same read-out and setting: for RUSKI-101 the value was 2.1 µM.
As to “SHH(FL): N-terminal signalling domain of the mature full-length SHH protein (residues 24–193), expressed in E. coli without lipid modification”, the IC50 in assay [2] (setting [5]) worked out at 0.44 µM.
With bovine serum albumin [BSA], the EC50 in assay [4] amounted to 0.49 µM.
